# Measurements from US12528777B2, “Quinazolinones derivatives for treatment of non-alcoholic fatty liver disease, preparation and use thereof” (Council of Scientific and Industrial Research, priority 2020, dated 2026).
# “Also recorded” adds a separate entry of the source.
# Legend:
# ATGL = assay: Western blot of ATGL level in HepG2 cells; format: cell-based; parameters: key to Increase in ATGL level: + = slight or in insignificant; ++ = Moderate; +++ and ++++ = active; +++ and ++++ = active; +++++ = very active; settings: western blot; for Increase in ATGL level: HepG2 cells, score; for ATGL level in HepG2 cells: 24 hours, 10 μM screening or 50 nM-5 μM dose dependent
# Procedure: (§1) To select the compounds capable of inhibiting the ubiquitination of ATGL by COP1 by targeting the VP motif, confocal microscopy was performed with the provided molecules. If the compound was effective in inhibiting the interaction, there would be a reduction in the number of fat droplets in the cells after treatment. […] With this rationale in mind, HepG2 cells were induced to accumulate lipid droplets after treatment with 250 µM of oleate and 10 μM of the specific compounds were added. The potential of the compounds to bring about a reduction in the number of fat droplets was then checked by comparison with oleate induced cells by counting number of droplets of approximately 20 cells from each treatment and calculating the average number of lipid droplets of each cell. The selected compounds were then subjected to dose dependent treatments and the ones which could maintain its potency to reduce fat droplets at lower doses were then selected for western blot analysis. The compound which could reduce the number of fat droplets in the cells are expected to raise the levels of ATGL since they are likely to deter COP1 from ubiquitinating ATGL. This increase will be visible only in the protein level and gene expression is likely to remain unchanged since ubiquitination is a […] modification. Thus, western blot was performed to check ATGL levels in the cells with the selected molecules.
# HepG2 cells were treated with the compounds 9, 10, 11, 17, 18, 23, 24, 115, 123, 127, 139,107, 171, 179, 73, 187, 211, 215, 219, 223, 232, 238, 241, 244, 258, 299, 308, and 333a, (10 μM for initial screening and 50 nM, 100 nM, 200 nM, 500 nM, 1 μM and 5 μM for dose dependent assays) for 24 hours. After removing media from the cells, the wells were washed with 1×PBS twice to remove any remnant media. Cells were then lysed in lysis buffer containing 50 mM Tris-HCl (pH 7.4), 100 mM NaCl, 1 mM EDTA, 1 mM EGTA, 1% Triton X-100 and protease inhibitor cocktail (Millipore, Billierica, MA, USA). Following centrifugation at 20,000 g for 20 minutes, the protein solution was extracted from the cells. Protein was estimated using Bradford assay. Bradford's reagent (BioRad) was diluted in 1:4 ratio in double distilled water. 2 μl of protein sample was added to 100 μl of the reagent and absorbance was measured at 595 nm. […] of protein was diluted in lysis buffer. 1× loading buffer diluted from 5× stock containing 250 mM Tris-HCl (pH 6.8), 10% SDS, 50% glycerol, 0.1% bromophenol Blue and 10% β-mercaptoethanol was added. The protein samples were then heated at 95° C. for 10 minutes, cooled and centrifuged at 12,000 g for 2 minutes prior to loading.
# For western blotting, the proteins were resolved in 10% SDS PAGE (discontinuous buffer system). 1× running buffer containing SDS, Tris Base and Glycine was used to run the gel at 80V for approximately 2 hours. Transfer was done using PVDF membrane (Millipore) having pore size of 0.45 μm. 1× transfer buffer containing Tris-Base, Glycine and 20% methanol was used for wet transfer. Transfer was done at 90V for 3 hours. Following transfer, the PVDF membrane containing the proteins were washed in 1×PBST comprising of 1×PBS and 1% Tween 20 (Sigma Aldrich). The membrane was then incubated for 1 hour at room temperature in 5% skim milk powder to block the non-specific sites. Following multiple washes with 1×PBST to wash away any remaining blocking buffer, the required primary antibody (COP1 [Bethyl Laboraties], ATGL [Cell Signalling Technology] or Actin[Cell Signalling Technology]) prepared with 1×PBST, 1% Bovine Serum Albumin and 0.04% Sodium Azide was added to the membrane and incubated overnight at 4° C. The next day, the membrane was again washed multiple times with 1×PBST to remove any unbound primary antibody. The membrane was then incubated with goat anti-rabbit secondary antibody (Genei) for 1 hour at room temperature and washed again for multiple times with 1×PBST. […]
# HepG2 cells = assay: Confocal microscopy: lipid droplets in oleate induced HepG2 cells; format: cell-based; parameters: key to Reduction in Lipid Droplets: + = slight or in insignificant; ++ = Moderate; +++ and ++++ = active; +++ and ++++ = active; +++++ = very active; settings: for Reduction in Lipid Droplets: oleate induced HepG2 cells, score; for Number of lipid droplets: HepG2 cells, 250 μM oleate induction
# Procedure: as §1
# HepG2 cells were plated in confocal dishes (SPL, Genetix Biotech Asia Pvt. Ltd.). The cells were allowed to adhere and divide for 16 hours. 10 μM for initial screening and 10 nM, 20 nM, 50 nM, 100 nM, 200 nM, 500 nM, 1 μM and 5 μM for dose dependent assays of the compounds 9 and 107 were dissolved in DMSO and added to the cells. 250 μM of oleate was used for induction. BSA (Sigma Aldrich) was used as a negative control. Post 24 hours of treatment, media was decanted from the cells and washed with 1×PBS solution to remove any remnant. 200 μl of staining solution containing 200 ng/ml BODIPY (Invitrogen) and 25 µg/ml HOECKST342 (Invitrogen) were added to the cells and incubated at 37° C. for 30 minutes under dark conditions. Cells were washed 3 times with 1×PBS to remove excess stain. FLUOVIEW FV10i (Olympus) was used to visualise the cells.
Structure (SMILES),Increase in ATGL level (ATGL),Reduction in Lipid Droplets (HepG2 cells),ATGL level in HepG2 cells (ATGL),Number of lipid droplets (HepG2 cells)
"COCCn1cnc2ccc(NC(=O)Nc3cc(C(=O)OC)ccc3OC)cc2c1=O [Compound 12, methyl 4-methoxy-3-(3-(3-(2-methoxyethyl)-4-oxo-3,4-dihydroquinazolin-6-yl)ureido)benzoate]",+++,++,,
"COCCn1cnc2ccc(NC(=O)Nc3ccc(F)cc3)cc2c1=O [Compound 35, 1-(4-fluorophenyl)-3-(3-(2-methoxyethyl)-4-oxo-3,4-dihydroquinazolin-6-yl)urea]",+,+,,
"COCCn1cnc2ccc(NC(=O)Nc3cccc(C(=O)N4CCOCC4)c3)cc2c1=O [Compound 19, 1-(3-(2-methoxyethyl)-4-oxo-3,4-dihydroquinazolin-6-yl)-3-(3-(morpholine-4-carbonyl)phenyl)urea]",+,++,ability to increase ATGL level,
"COCCn1c(C(C)C)nc2ccc(NC(=O)Nc3cccc(C(C)=O)c3)cc2c1=O [Compound 111, 1-(3-acetylphenyl)-3-(2-isopropyl-3-(2-methoxyethyl)-4-oxo-3,4-dihydroquinazolin-6-yl)urea]",+++,++,,
"COCCn1cnc2ccc(NC(=O)Nc3cccc(N(Cc4ccccc4)C(C)=O)c3)cc2c1=O [Compound 24, N-benzyl-N-(3-(3-(3-(2-methoxyethyl)-4-oxo-3,4-dihydroquinazolin-6-yl)ureido)phenyl)acetamide]",++++,+,increased ATGL level,
"CC(=O)c1cccc(NC(=O)Nc2ccc3ncn(C4CCN(C)CC4)c(=O)c3c2)c1 [Compound 163, 1-(3-acetylphenyl)-3-(3-(1-methylpiperidin-4-yl)-4-oxo-3,4-dihydroquinazolin-6-yl)urea]",+,++,some sort of increase in ATGL level,reduction in lipid droplets
"COCCn1cnc2ccc(NC(=O)Nc3cccc(C(C)O)c3)cc2c1=O (centres unmarked) [Compound 11, 1-(3-(1-hydroxyethyl)phenyl)-3-(3-(2-methoxyethyl)-4-oxo-3,4-dihydroquinazolin-6-yl)urea]",+,+,increased ATGL level,
"COCCn1c(-c2ccc(OC)cc2)nc2ccc(NC(=O)Nc3cccc(C(C)=O)c3)cc2c1=O [Compound 119, 1-(3-acetylphenyl)-3-(3-(2-methoxyethyl)-2-(4-methoxyphenyl)-4-oxo-3,4-dihydroquinazolin-6-yl)urea]",+,+,,
"CC(=O)c1cccc(NC(=O)Nc2ccc3ncn(CCN4CCCCC4)c(=O)c3c2)c1 [Compound 147, 1-(3-acetylphenyl)-3-(4-oxo-3-(2-(piperidin-1-yl)ethyl)-3,4-dihydroquinazolin-6-yl)urea]",+++,++,some sort of increase in ATGL level,reduction in lipid droplets
"COCCn1cnc2ccc(NC(=O)Nc3ccccc3)cc2c1=O [Compound 5, 1-(3-(2-methoxyethyl)-4-oxo-3,4-dihydroquinazolin-6-yl)-3-phenylurea]",++,++,,
"CC(=O)c1cccc(NC(=O)Nc2ccc3ncn(-c4ccccn4)c(=O)c3c2)c1 [Compound 159, 1-(3-acetylphenyl)-3-(4-oxo-3-(pyridin-2-yl)-3,4-dihydroquinazolin-6-yl)urea]",+,,some sort of increase in ATGL level,reduction in lipid droplets
"COCCn1cnc2ccc(NC(=O)Nc3cccc(OC)c3)cc2c1=O [Compound 6, 1-(3-(2-methoxyethyl)-4-oxo-3,4-dihydroquinazolin-6-yl)-3-(3-methoxyphenyl)urea]",++++,++++,increase in ATGL level,reduction of lipid droplet
"CCCCn1cnc2ccc(NC(=O)Nc3cccc(C(C)=O)c3)cc2c1=O [Compound 175, 1-(3-acetylphenyl)-3-(3-butyl-4-oxo-3,4-dihydroquinazolin-6-yl)urea]",+,+,did not increase ATGL level,reduced lipid droplets
"COCCn1cnc2ccc(NC(=O)Nc3ccc(C(=O)N4CCCC4)cc3)cc2c1=O [Compound 20, 1-(3-(2-methoxyethyl)-4-oxo-3,4-dihydroquinazolin-6-yl)-3-(4-(pyrrolidine-1-carbonyl)phenyl)urea]",++,++,ability to increase ATGL level,
"COCCn1cnc2ccc(NC(=O)Nc3cccc(C(=O)NC4CCCCC4)c3)cc2c1=O [Compound 15, N-cyclohexyl-3-(3-(3-(2-methoxyethyl)-4-oxo-3,4-dihydroquinazolin-6-yl)ureido)benzamide]",++++,+,,
"CC(=O)c1cccc(NC(=O)Nc2ccc3ncn(CCN(C)C)c(=O)c3c2)c1 [Compound 143, 1-(3-acetylphenyl)-3-(3-(2-(dimethylamino)ethyl)-4-oxo-3,4-dihydroquinazolin-6-yl)urea]",++++,+++,some sort of increase in ATGL level,reduction in lipid droplets
"COCCCn1cnc2ccc(NC(=O)Nc3cccc(C(C)=O)c3)cc2c1=O [Compound 89, 1-(3-acetylphenyl)-3-(3-(3-methoxypropyl)-4-oxo-3,4-dihydroquinazolin-6-yl)urea]",+,+++,some sort of increase in ATGL level,reduction in lipid droplets
"COCCn1cnc2ccc(NC(=O)Nc3cccc(C(=O)N4CCCC4)c3)cc2c1=O [Compound 18, 1-(3-(2-methoxyethyl)-4-oxo-3,4-dihydroquinazolin-6-yl)-3-(3-(pyrrolidine-1-carbonyl)phenyl)urea]",++++,+,increased ATGL level; also recorded: ability to increase ATGL level,
"COCCn1cnc2ccc(NC(=O)Nc3cccc(NC(C)=O)c3)cc2c1=O [Compound 22, N-(3-(3-(3-(2-methoxyethyl)-4-oxo-3,4-dihydroquinazolin-6-yl)ureido)phenyl)acetamide]",+,+,,
